# Test results taken from patent US20260345555A1, “Compositions and Methods for Protecting Salivary Glands from Off-Target Radiation Damage” (University of Rochester, priority 2022, published 2026).
# Structures can show the parent of a compound that is named as a salt.
# Test system: Reduced glutathione in salivary gland cell clusters (SGm)
# Experiment: Glutathione assay in salivary gland tissue chip, 4 days post-radiation (15 Gy); also first screen of Selleck library at 100 μM
# Format: cell-based, mouse
# Details: not given
# Excerpt: A salivary gland tissue chip was leveraged for high-content drug screening to identify novel radioprotective compounds (Song Y et al., Commun Biol., 2021, 4). The chip platform consists of an array of near-spherical microbubble (MB) cavities formed in poly(dimethylsiloxane) (PDMS). Each chip, containing ~50 MBs, affixed within wells of a 96-well plate (FIG. 1C). Primary salivary gland cell clusters (FIG. 1A), suspended in a poly(ethylene glycol) (PEG) hydrogel precursor and MMP-degradable peptide crosslinker solution together with the photoinitiator LAP, were applied to the chip allowing the clusters to deposit into the MBs (FIG. 1D). In situ polymerization of the hydrogel was achieved using long-wave, low intensity UV light. Over time, the cell clusters aggregate and proliferate to form SGm (FIG. 1C).
# The glutathione assay was used to measure glutathione levels at various time points post-radiation to determine the optimal time point for detecting differences between 0 Gy and 15 Gy. Based on the data, the greatest signal separation was measured at 4 days post-irradiation (FIG. 9). This timepoint is similar to previous reports on decreases in glutathione post-radiation and was used for all experiments moving forward (Meeks L et al., Physiological Genomics, 2021, 53: 85-98).
# The dose response to WR-1065 was examined to determine effective concentrations of WR-1065 to prevent the reduction of glutathione levels post-radiation. A SGm tissue chip was cultured for 4 days to allow spheres to form. The chip was then treated with WR-1065 30 minutes before and during radiation, followed by drug wash out with media 30 minutes post-radiation (FIG. 2A). This dosing scheme is consistent with the use of Amifostine clinically and with previous work. The glutathione assay was performed at 4 days post-radiation (FIG. 2A). […] Moreover, it is clinically relevant as 15-30 minutes before radiation, patients are administered Amifostine intravenously at 200 mg/m (Escobar A et al., IntechOpen, 2019, pp. 15-37; Eisbruch A, J Clin Oncol, 2011, 29: 119-121; Bardet, E. et al. Semin Oncol, 2002, 29, 57-60). Assuming an average adult body surface area of 17,000 cm^2 and a blood volume of 1.35 gallons (5.1 liters), Amifostine is administered at 300 μM (Mosteller, R. D. N Engl J Med 317, 1098 (1987)).
# The glutathione and senescence assays were used to screen a library of FDA-approved drugs (Selleck Chemicals) at 100 μM. Drugs were first screened using the glutathione assay according to the timeline depicted in FIG. 2A. Any compound resulting in statistically similar glutathione levels compared to 0 Gy control was considered a hit (FIG. 4, grey circles). Hits with the glutathione assay were then tested with the senescence assay and considered a “double hit” if senescence levels were statistically similar to levels at 0 Gy (FIG. 4, black circles). […] While this hit rate is higher than many other drug screening reports (0.1-0.3%), this may be due to the statistical rigor afforded by the tissue chip format (Blanchard, C et al., Antimicrob Agents Chemother 2016, 60, 862-872; Colquhoun, J. M et al., Antibiotics (Basel) 2019, 8, 48). Additionally, phenotypic screens generally have higher hit rates than target-based screens (>1%) (Moffat, J. G et al., Nature Reviews Drug Discovery 2017, 16, 531-543; Rottman, M et al., Science 2010, 329, 1175-1180).
# Mice were euthanized and the submandibular glands (SMG) were removed and chopped with a razor blade for 5 min. The tissue was then incubated in Hank's buffered salt solution (HBSS) containing 15 mM HEPES, 50 U/mL collagenase type II (Thermo Fischer 17101015), and 100 U/mL hyaluronidase (Sigma Aldrich H3506) at 37 °C for 30 min. Cells were centrifuged, then resuspended in HBSS with 15 mM HEPES and passed through 100 μm and 20 μm mesh filters to isolate clusters between 20-100 μm. The digestion protocol produces cell cluster sizes evenly distributed between 20 to 100 μm (Song, Y et al., Advanced Healthcare Materials). […]
row,Compound,Glutathione: Normalized mean intensity
1,"CC(=O)Oc1ccccc1C(=O)Nc1ncc([N+](=O)[O-])s1 [Nitazoxanide (Alinia, Annita)]",0.5996

# Same assay, conditions: first screen of Selleck library at 100 μM, 15 Gy, 4 days post-radiation
row,Compound,Glutathione normalized mean intensity
1,CNC(=C[N+](=O)[O-])NCCSCc1ccc(CN(C)C)o1 [Ranitidine (Zantac)],0.4295
2,Nc1ncnc2c1ncn2[C@@H]1O[C@H](CO)[C@@H](O)[C@@H]1O [Vidarabine (Vira-A)],0.3742
3,CC(=O)OCC(=O)NCCCOc1cccc(CN2CCCCC2)c1 [Roxatidine acetate HCl],0.4245
4,CCCc1cc(C(N)=S)ccn1 [Protionamide (Prothionamide)],0.6328
5,Oc1c(Cl)cc(Cl)c2cccnc12 [Chloroxine],0.1604
6,NC(=O)c1cccnc1 [Nicotinamide (Niacinamide)],0.6872
7,O=C(O)Cc1ccccc1Nc1c(Cl)cccc1Cl [Diclofenac],0.334
8,CCCOc1ccc2nc(NC(=O)OC)[nH]c2c1 [Oxibendazole],0.747
9,Vitamin B12,0.7029
10,O=c1c(-c2ccc(O)cc2)coc2cc(O)ccc12 [Daidzein],0.5394
11,C[C@@H]1CN(c2c(F)c(N)c3c(=O)c(C(=O)O)cn(C4CC4)c3c2F)C[C@H](C)N1 [Sparfloxacin],0.7607
12,CC(=O)[C@H]1CC[C@H]2[C@@H]3CC=C4C[C@@H](O)CC[C@]4(C)[C@H]3CC[C@]12C [Pregnenolone],0.6057
13,Cc1cc(NS(=O)(=O)c2ccc(N)cc2)no1 [Sulfamethoxazole],0.8442
14,OCCN(CCO)c1nc(N2CCCCC2)c2nc(N(CCO)CCO)nc(N3CCCCC3)c2n1 [Dipyridamole (Persantine)],0.5847
15,Clc1ccc(C(Cn2ccnc2)OCc2ccsc2Cl)c(Cl)c1 (stereo not shown) [Tioconazole],0.6333
16,NC(=O)c1ncn([C@@H]2O[C@H](CO)[C@@H](O)[C@H]2O)c1N [Acadesine],0.3637
17,CCOC(=O)[C@H](CCc1ccccc1)N[C@@H](C)C(=O)N1[C@H](C(=O)O)C[C@@H]2CCC[C@@H]21 [Ramipril (Altace)],0.7145
18,O=C(CCCN1CCC(O)(c2ccc(Cl)cc2)CC1)c1ccc(F)cc1 [Haloperidol (Haldol)],0.6675
19,Cc1cccc(C)c1NC(=O)CN1CCCC1=O [Nefiracetam (Translon)],0.6824
20,COc1ccccc1OCC(O)CN1CCN(CC(=O)Nc2c(C)cccc2C)CC1 (stereo not shown) [Ranolazine (Ranexa)],0.5015
21,CN(C)C(=N)N=C(N)N [Metformin hydrochloride (Glucophage)],0.6991
22,CCCCC(=O)N(Cc1ccc(-c2ccccc2-c2nn[nH]n2)cc1)[C@H](C(=O)O)C(C)C [Valsartan (Diovan)],0.6351
23,COc1ccc(C(=O)CC(=O)c2ccc(C(C)(C)C)cc2)cc1 [Avobenzone (Parsol 1789)],0.5309
24,CCC1(c2ccccc2)C(=O)NCNC1=O [Primidone (Mysoline)],0.8725
25,Clc1ccc(CCC(Cn2ccnc2)Sc2c(Cl)cccc2Cl)cc1 (stereo not shown) [Butoconazole nitrate],0.6197
26,CC1(C)[C@H](C(=O)O)N2C(=O)C[C@H]2S1(=O)=O [Sulbactam],0.6491
27,CC(C)C(=O)Nc1ccc([N+](=O)[O-])c(C(F)(F)F)c1 [Flutamide (Eulexin)],0.6406
28,Nc1nc(O)c2ncn(COC(CO)CO)c2n1 [Ganciclovir],0.5803
29,O=c1[nH]c(=O)n([C@H]2C[C@H](O)[C@@H](CO)O2)cc1C(F)(F)F [Trifluridine (Viroptic)],0.7468
30,COc1cc(NS(=O)(=O)c2ccc(N)cc2)nc(OC)n1 [Sulphadimethoxine],0.8846
